This assay deals with TNFα (Homo sapiens, UniProt P01375). As to the kind of experiment: TNF induced HEK-Blue assay (NF-kB-driven secreted alkaline phosphatase reporter). The class given is cell-based. Conditions: TNFα 0.5 ng/mL, HEK-Blue-CD40L cells, 18 h; read-out: TNF induced HEK-Blue assay IC50 value. In short, it runs like this: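 HEK-Blue-CD40L cells (NF-kB-driven SEAP reporter), 20,000/well, added after 30 min pre-incubation of compound (0.004–25 μM final) with TNFα 0.5 ng/mL final at 37 °C; 18 h incubation. SEAP read with QUANTI-Blue at 620 nm; IC50 from 4-parameter logistic fit, normalized to unstimulated and stimulated DMSO controls.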

The structures appear in SMILES notation.

As usually defined, the IC50 is the concentration that inhibits the measured activity by half.

Chain of TNFα (P01375 77-233 limits assumed): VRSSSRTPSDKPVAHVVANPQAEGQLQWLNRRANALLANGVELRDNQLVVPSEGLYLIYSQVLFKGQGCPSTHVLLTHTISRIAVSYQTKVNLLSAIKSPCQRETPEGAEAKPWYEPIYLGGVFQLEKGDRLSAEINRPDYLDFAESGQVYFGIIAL

As to `CC(C)(O)c1ncc(-c2ccc3ncc(Cl)c(NC4(c5ccccc5)CC4)c3c2)cn1` [Example 161, 2-(5-(3-chloro-4-((1-phenylcyclopropyl)amino)quinolin-6-yl)pyrimidin-2-yl)propan-2-ol], the IC50 was 1000 to 10000 nM.
For `CCN(Cc1c(Cl)cnc2ccc(-c3cnc(C(C)(C)O)nc3)cc12)c1ccccc1` [Example 66, 2-(5-(3-chloro-4-((ethyl(phenyl)amino)methyl)quinolin-6-yl)pyrimidin-2-yl)propan-2-ol] the value was 1000 to 10000 nM; for `CC(Nc1c(Cl)cnc2cc(F)c(-c3ccc(C(O)CN4CCOCC4)cc3)cc12)c1ccccc1F` (centres unmarked) [Example 272, 1-(4-(3-chloro-7-fluoro-4-((1-(2-fluorophenyl)ethyl)amino)quinolin-6-yl)phenyl)-2-morpholinoethan-1-ol], less than 1000 nM.
For `C[C@@H](Nc1c(Cl)cnc2cc(F)c(-c3cnc(C(C)(C)O)nc3)cc12)c1cc(C#N)ccc1F` [Example 379, (R)-3-(1-((3-chloro-7-fluoro-6-(2-(2-hydroxypropan-2-yl)pyrimidin-5-yl)quinolin-4-yl)amino)ethyl)-4-fluorobenzonitrile] the value was less than 1000 nM; for `CC(Nc1c(Cl)c(N)nc2ccc(-c3cnc(N4CCN(CC(=O)O)CC4)nc3)cc12)c1ccccc1F` (centres unmarked) [Example 46, 2-(4-(5-(2-amino-3-chloro-4-((1-(2-fluorophenyl)ethyl)amino)quinolin-6-yl)pyrimidin-2-yl)piperazin-1-yl) acetic acid], less than 1000 nM.
The result for `C[C@H](Nc1c(Cl)cnc2cnc(-c3cnc(N4CCN(CC(=O)O)CC4)nc3)cc12)c1ccccc1F` (single isomer, unassigned) [Example 236] reads 10000 to 25000 nM.
Consider `C[C@@H](Nc1c(Cl)cnc2ccccc12)c1cc(-c2ccccc2)ccc1F` [Example 459, (R)-3-chloro-N-(1-(4-fluoro-[1,1′-biphenyl]-3-yl)ethyl)quinolin-4-amine], for which the IC50 was less than 1000 nM.
For `CCOC(=O)c1nc2ccc(-c3ccc(C#N)nc3)cc2c(Nc2cc(C)ccc2C)c1Cl` [Example 5, ethyl 3-chloro-6-(6-cyanopyridin-3-yl)-4-((2,5-dimethylphenyl)amino)quinoline-2-carboxylate] the value was 1000 to 10000 nM; for `CC(Nc1c(Cl)cnc2cc(F)c(-c3ccc(C(O)CO)cc3)cc12)c1ccccc1F` (centres unmarked) [Example 256, 1-(4-(3-chloro-7-fluoro-4-((1-(2-fluorophenyl)ethyl)amino)quinolin-6-yl)phenyl)ethane-1,2-diol], less than 1000 nM.
As for `COc1ccc(F)c([C@@H](C)Nc2c(Cl)c(C)nc3ccccc23)c1` [Example 329, (R)-3-chloro-N-(1-(2-fluoro-5-methoxyphenyl)ethyl)-2-methylquinolin-4-amine], the IC50 is 1000 to 10000 nM.
For `C[C@@H](Nc1c(Cl)cnc2ccccc12)c1cc(-c2cn[nH]c2)ccc1F` [Example 455, (R)-3-chloro-N-(1-(2-fluoro-5-(1H-pyrazol-4-yl)phenyl)ethyl)quinolin-4-amine] the value was less than 1000 nM.
For `Cc1nc2ccccc2c(N[C@H](C)c2cc(Br)ccc2F)c1Cl` [Example 538, (R)—N-(1-(5-bromo-2-fluorophenyl)ethyl)-3-chloro-2-methylquinolin-4-amine] the value was 1000 to 10000 nM; for `CCC(Nc1c(Cl)cnc2ccc(-c3cnc(C(C)(C)O)nc3)cc12)c1nc(C(=O)O)ccc1F` (centres unmarked) [Example 128, 6-(1-((3-chloro-6-(2-(2-hydroxypropan-2-yl)pyrimidin-5-yl)quinolin-4-yl)amino)propyl)-5-fluoropicolinic acid], 1000 to 10000 nM; for `CC(Nc1c(Cl)cnc2cc(F)c(-c3cnc(N4CCNCC4)nc3)cc12)c1ccccc1F` (single isomer, unassigned) [Example 608, 3-chloro-7-fluoro-N-(1-(2-fluorophenyl)ethyl)-6-(2-(piperazin-1-yl)pyrimidin-5-yl)quinolin-4-amine], less than 1000 nM.

The values are drawn from patent US10865191B2, “Heterocyclic compounds useful as modulators of TNF alpha” (BRISTOL-MYERS SQUIBB COMPANY, priority 2015, dated 2020).
